# Measurements as given in PMC5651913, “Photosensing and Thermosensing by Phytochrome B Require Both Proximal and Distal Allosteric Features within the Dimeric Photoreceptor” (Scientific Reports, 2017).
# T1: PhyB 1–450 fragment (Arabidopsis thaliana, UniProt P14713)
# T1 construct: NTE-PAS-GAF, residues 1-450; N-terminal 6His-TEV tag cut off; E. coli BL21(DE3)
# T1 sequence (P14713 1-450): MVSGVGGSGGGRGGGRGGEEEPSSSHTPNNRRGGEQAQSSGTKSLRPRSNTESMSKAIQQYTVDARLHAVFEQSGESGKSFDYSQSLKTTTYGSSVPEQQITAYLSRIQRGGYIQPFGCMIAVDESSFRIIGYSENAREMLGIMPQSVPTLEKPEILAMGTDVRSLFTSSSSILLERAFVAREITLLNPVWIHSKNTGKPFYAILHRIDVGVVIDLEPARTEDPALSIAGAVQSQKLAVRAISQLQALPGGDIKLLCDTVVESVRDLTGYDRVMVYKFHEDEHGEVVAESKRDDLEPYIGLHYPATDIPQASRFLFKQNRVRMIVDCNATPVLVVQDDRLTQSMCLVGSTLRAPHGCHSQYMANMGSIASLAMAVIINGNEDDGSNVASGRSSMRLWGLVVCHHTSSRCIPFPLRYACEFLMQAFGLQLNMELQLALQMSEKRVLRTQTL
# T2: full-length (FL) PhyB (Arabidopsis thaliana, UniProt P14713)
# T2 construct: full length, 1172 residues; N-terminal 6His-TEV tag cut off; intron-less gene; E. coli BL21(DE3); homodimer, 320 kDa by SEC
# T2 sequence (P14713 1-1172): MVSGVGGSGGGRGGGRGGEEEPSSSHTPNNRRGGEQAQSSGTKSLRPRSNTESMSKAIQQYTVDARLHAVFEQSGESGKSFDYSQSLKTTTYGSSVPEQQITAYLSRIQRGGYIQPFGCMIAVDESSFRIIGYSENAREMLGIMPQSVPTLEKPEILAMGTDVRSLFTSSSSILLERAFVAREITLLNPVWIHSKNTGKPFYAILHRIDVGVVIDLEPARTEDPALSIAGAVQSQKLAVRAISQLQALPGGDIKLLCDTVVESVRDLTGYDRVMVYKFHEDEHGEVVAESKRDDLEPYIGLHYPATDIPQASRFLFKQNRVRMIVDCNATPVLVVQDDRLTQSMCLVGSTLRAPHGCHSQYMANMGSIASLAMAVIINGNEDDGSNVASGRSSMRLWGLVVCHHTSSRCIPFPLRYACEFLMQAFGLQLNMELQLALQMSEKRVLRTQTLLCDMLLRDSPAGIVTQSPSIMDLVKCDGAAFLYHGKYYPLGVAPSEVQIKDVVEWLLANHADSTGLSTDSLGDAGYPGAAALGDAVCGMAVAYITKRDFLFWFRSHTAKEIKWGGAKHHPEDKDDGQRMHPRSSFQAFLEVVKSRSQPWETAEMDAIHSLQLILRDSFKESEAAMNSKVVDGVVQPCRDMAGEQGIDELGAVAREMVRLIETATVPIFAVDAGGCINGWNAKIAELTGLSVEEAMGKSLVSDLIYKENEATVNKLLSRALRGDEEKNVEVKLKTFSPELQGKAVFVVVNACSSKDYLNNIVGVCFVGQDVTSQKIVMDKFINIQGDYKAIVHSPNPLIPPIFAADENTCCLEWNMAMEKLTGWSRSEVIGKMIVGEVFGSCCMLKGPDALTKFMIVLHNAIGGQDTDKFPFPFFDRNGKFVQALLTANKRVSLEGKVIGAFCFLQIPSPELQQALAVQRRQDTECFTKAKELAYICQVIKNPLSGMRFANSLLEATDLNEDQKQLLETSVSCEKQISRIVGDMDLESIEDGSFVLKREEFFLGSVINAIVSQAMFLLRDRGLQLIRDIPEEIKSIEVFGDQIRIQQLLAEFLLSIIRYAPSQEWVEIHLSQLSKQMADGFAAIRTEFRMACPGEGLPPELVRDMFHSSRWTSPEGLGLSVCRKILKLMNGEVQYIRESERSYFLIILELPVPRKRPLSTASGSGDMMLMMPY
# T3: PhyB 1–624 fragment (PSM) (Arabidopsis thaliana, UniProt P14713)
# T3 construct: photosensory module (NTE-PAS-GAF-PHY), residues 1-624; N-terminal 6His-TEV tag cut off; E. coli BL21(DE3)
# T3 sequence (P14713 1-624): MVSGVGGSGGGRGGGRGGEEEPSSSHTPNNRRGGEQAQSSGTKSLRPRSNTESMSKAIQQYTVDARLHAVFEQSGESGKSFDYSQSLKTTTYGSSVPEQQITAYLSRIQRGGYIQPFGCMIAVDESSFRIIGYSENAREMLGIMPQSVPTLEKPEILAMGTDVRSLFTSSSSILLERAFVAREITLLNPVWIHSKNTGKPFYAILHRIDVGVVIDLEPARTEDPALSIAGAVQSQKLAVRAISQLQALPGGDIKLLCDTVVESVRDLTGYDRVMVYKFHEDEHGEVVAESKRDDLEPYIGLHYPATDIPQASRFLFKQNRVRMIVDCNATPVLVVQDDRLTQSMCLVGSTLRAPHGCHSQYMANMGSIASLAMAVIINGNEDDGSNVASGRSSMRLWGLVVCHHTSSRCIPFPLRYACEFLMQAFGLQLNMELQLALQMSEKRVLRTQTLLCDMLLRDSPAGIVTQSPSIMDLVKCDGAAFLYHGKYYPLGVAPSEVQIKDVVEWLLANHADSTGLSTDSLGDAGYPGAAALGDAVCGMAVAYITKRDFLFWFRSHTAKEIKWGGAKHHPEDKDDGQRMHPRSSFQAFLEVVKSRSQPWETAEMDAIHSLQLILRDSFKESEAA
# T4: PhyB 1–908 fragment (Arabidopsis thaliana, UniProt P14713)
# T4 construct: residues 1-908 (HKRD removed); N-terminal 6His-TEV tag cut off; E. coli BL21(DE3)
# T4 sequence (P14713 1-908): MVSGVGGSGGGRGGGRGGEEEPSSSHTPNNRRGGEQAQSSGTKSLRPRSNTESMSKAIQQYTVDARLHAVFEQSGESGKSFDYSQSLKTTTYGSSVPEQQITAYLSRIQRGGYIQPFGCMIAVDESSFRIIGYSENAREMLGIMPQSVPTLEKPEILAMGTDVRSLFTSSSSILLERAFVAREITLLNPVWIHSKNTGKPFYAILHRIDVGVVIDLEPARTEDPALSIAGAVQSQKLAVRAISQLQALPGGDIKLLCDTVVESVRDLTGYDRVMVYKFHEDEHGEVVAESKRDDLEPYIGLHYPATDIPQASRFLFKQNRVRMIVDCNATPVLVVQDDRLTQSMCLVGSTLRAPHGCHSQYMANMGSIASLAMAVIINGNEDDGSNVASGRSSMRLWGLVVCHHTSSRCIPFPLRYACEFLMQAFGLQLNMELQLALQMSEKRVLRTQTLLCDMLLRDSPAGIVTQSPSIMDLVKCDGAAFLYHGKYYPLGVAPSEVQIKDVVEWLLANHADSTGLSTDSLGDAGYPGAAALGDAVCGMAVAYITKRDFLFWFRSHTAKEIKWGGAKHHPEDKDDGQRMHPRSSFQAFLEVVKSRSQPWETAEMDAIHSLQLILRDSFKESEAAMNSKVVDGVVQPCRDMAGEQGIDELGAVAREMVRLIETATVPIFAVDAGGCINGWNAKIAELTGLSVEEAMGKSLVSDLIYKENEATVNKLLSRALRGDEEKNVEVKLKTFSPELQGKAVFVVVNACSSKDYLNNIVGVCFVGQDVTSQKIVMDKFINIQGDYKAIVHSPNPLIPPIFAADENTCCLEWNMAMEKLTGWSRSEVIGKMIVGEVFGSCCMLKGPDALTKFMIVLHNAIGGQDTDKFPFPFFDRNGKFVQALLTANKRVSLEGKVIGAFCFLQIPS
# B1: full-length Arabidopsis thaliana PhyB assembled with PΦB (natural protein, UniProt P14713 1-1172, looked up)
# chain: MVSGVGGSGGGRGGGRGGEEEPSSSHTPNNRRGGEQAQSSGTKSLRPRSNTESMSKAIQQYTVDARLHAVFEQSGESGKSFDYSQSLKTTTYGSSVPEQQITAYLSRIQRGGYIQPFGCMIAVDESSFRIIGYSENAREMLGIMPQSVPTLEKPEILAMGTDVRSLFTSSSSILLERAFVAREITLLNPVWIHSKNTGKPFYAILHRIDVGVVIDLEPARTEDPALSIAGAVQSQKLAVRAISQLQALPGGDIKLLCDTVVESVRDLTGYDRVMVYKFHEDEHGEVVAESKRDDLEPYIGLHYPATDIPQASRFLFKQNRVRMIVDCNATPVLVVQDDRLTQSMCLVGSTLRAPHGCHSQYMANMGSIASLAMAVIINGNEDDGSNVASGRSSMRLWGLVVCHHTSSRCIPFPLRYACEFLMQAFGLQLNMELQLALQMSEKRVLRTQTLLCDMLLRDSPAGIVTQSPSIMDLVKCDGAAFLYHGKYYPLGVAPSEVQIKDVVEWLLANHADSTGLSTDSLGDAGYPGAAALGDAVCGMAVAYITKRDFLFWFRSHTAKEIKWGGAKHHPEDKDDGQRMHPRSSFQAFLEVVKSRSQPWETAEMDAIHSLQLILRDSFKESEAAMNSKVVDGVVQPCRDMAGEQGIDELGAVAREMVRLIETATVPIFAVDAGGCINGWNAKIAELTGLSVEEAMGKSLVSDLIYKENEATVNKLLSRALRGDEEKNVEVKLKTFSPELQGKAVFVVVNACSSKDYLNNIVGVCFVGQDVTSQKIVMDKFINIQGDYKAIVHSPNPLIPPIFAADENTCCLEWNMAMEKLTGWSRSEVIGKMIVGEVFGSCCMLKGPDALTKFMIVLHNAIGGQDTDKFPFPFFDRNGKFVQALLTANKRVSLEGKVIGAFCFLQIPSPELQQALAVQRRQDTECFTKAKELAYICQVIKNPLSGMRFANSLLEATDLNEDQKQLLETSVSCEKQISRIVGDMDLESIEDGSFVLKREEFFLGSVINAIVSQAMFLLRDRGLQLIRDIPEEIKSIEVFGDQIRIQQLLAEFLLSIIRYAPSQEWVEIHLSQLSKQMADGFAAIRTEFRMACPGEGLPPELVRDMFHSSRWTSPEGLGLSVCRKILKLMNGEVQYIRESERSYFLIILELPVPRKRPLSTASGSGDMMLMMPY
# modifications: phytochromobilin (PΦB) covalently bound to the cysteine of the GAF domain
# notes: Phytochrome B (PhyB), Arabidopsis thaliana, full-length 1172-residue polypeptide, from an intron-less PhyB gene designed for recombinant expression; Analysed as Pr; TEV cleavage of the printed tag probably leaves its last G at the N-terminus (surmised); also called FL PhyB; FL
# Experiments:
# PhyB 1–450 fragment = molecular target: T1, PhyB 1–450 fragment; assay: assembly in E. coli, zinc-induced fluorescence after SDS-PAGE, UV-Vis absorption; assay type: binding; details: covalent; GAF domain cysteine; 25 °C, pH 7.9
# full-length (FL) PhyB = molecular target: T2, full-length (FL) PhyB; assay: as above; assay type: binding; details: covalent; GAF domain cysteine; 25 °C, pH 7.9
# [1] = molecular target: T5, PhyB 51–624 (NTE truncation) (Arabidopsis thaliana, UniProt P14713); assay: as above; assay type: binding; details: covalent; GAF domain cysteine; 25 °C, pH 7.9
# T5 construct: PSM residues 51-624; N-terminal 6His-TEV tag cut off; E. coli BL21(DE3)
# [2] = molecular target: T6, PhyB 100–624 (NTE truncation) (Arabidopsis thaliana, UniProt P14713); assay: as above; assay type: binding; details: covalent; GAF domain cysteine; 25 °C, pH 7.9
# T6 construct: PSM residues 100-624; N-terminal 6His-TEV tag cut off; E. coli BL21(DE3)
# [3] = molecular target: T7, PhyB 90–624 (NTE truncation) (Arabidopsis thaliana, UniProt P14713); assay: as above; assay type: binding; details: covalent; GAF domain cysteine; 25 °C, pH 7.9
# T7 construct: PSM residues 90-624; N-terminal 6His-TEV tag cut off; E. coli BL21(DE3); 4OUR is an earlier structure of this fragment
# [4] = molecular target: T3, PhyB 1–624 fragment (PSM); assay: as above; assay type: binding; details: covalent; GAF domain cysteine; 25 °C, pH 7.9
# PhyB 1–908 fragment = molecular target: T4, PhyB 1–908 fragment; assay: as above; assay type: binding; details: covalent; GAF domain cysteine; 25 °C, pH 7.9
# [5] = molecular target: the molecule itself; assay: SEC; Superdex 200 HR 10/30, 10 °C, 150 mM KCl, 50 mM HEPES-NaOH pH 7.8, 0.3 mM TCEP; samples as Pr at 0.6 mg/ml; apparent mass from size standards; monomer to dimer
Molecule,"assembly in E. coli, zinc-induced fluorescence after SDS-PAGE, UV-Vis absorption (PhyB 1–450 fragment)","assembly in E. coli, zinc-induced fluorescence after SDS-PAGE, UV-Vis absorption (full-length (FL) PhyB)","assembly in E. coli, zinc-induced fluorescence after SDS-PAGE, UV-Vis absorption [1]","assembly in E. coli, zinc-induced fluorescence after SDS-PAGE, UV-Vis absorption [2]","assembly in E. coli, zinc-induced fluorescence after SDS-PAGE, UV-Vis absorption [3]","assembly in E. coli, zinc-induced fluorescence after SDS-PAGE, UV-Vis absorption [4]","assembly in E. coli, zinc-induced fluorescence after SDS-PAGE, UV-Vis absorption (PhyB 1–908 fragment)",stoichiometry N [5]
C/C=C1/C(=C/c2[nH]c(/C=C3N=C(/C=C4\NC(=O)C(CC)=C4C)C(C)=C\3CCC(=O)O)c(CCC(=O)O)c2C)NC(=O)[C@@H]1C [PCB],the fragment assembled with PCB generated as least some of a ‘Pfr’-like state,recombinant PhyB assembled with PCB with efficiencies equal to that seen for PΦB,–,–,–,–,–,–
C=CC1=C(C)/C(=C/C2=NC(=C\c3[nH]c(/C=C4\NC(=O)[C@H](C)\C4=C/C)c(C)c3CCC(=O)O)/C(CCC(=O)O)=C2C)NC1=O [PΦB],The truncations were expressed and assembled with PΦB in Escherichia coli,purified chromoproteins were readily obtained with high bilin occupancy and near normal Pr absorption,"all of the truncations expressed well, efficiently assembled with PΦB, and displayed normal Pr absorption","all of the truncations expressed well, efficiently assembled with PΦB, and displayed normal Pr absorption","all of the truncations expressed well, efficiently assembled with PΦB, and displayed normal Pr absorption",The truncations were expressed and assembled with PΦB in Escherichia coli,The truncations were expressed and assembled with PΦB in Escherichia coli,–
B1,–,–,–,–,–,–,–,2
